Key:
Type in all cases: cell-based
[1] = system: human prostate cancer DU-145 cells; assay: Measurement of cytotoxic activity for human cancer cells (2), Sulforhodamine B, DU-145; conditions: 72 hours
Procedure: (§1) Measurement of cytotoxic activity for human cancer cells (2)
(§2) Human colon cancer WiDr cells adjusted to a density of 6×10^4 cells/ml, human non-small cell lung carcinoma A549 cells adjusted to a density of 4×10^4 cells/ml or human prostate cancer DU-145 cells adjusted to a density of 6×10^4 cells/ml were dispensed into a 96 well test plate and cultured at 37° C. in a CO2 incubator. After 24 hours, varied concentration of the compound A, compound B or compound C was dispensed in 100 μl portions, and the cells were cultured at 37° C. for additional 72 hours in a CO2 incubator. After the culturing, the number of cells was determined using Sulforhodamine B, and the IC50 value of each compound for cell growth was calculated.

[2] = system: human non-small cell lung carcinoma A549 cells; assay: Measurement of cytotoxic activity for human cancer cells (2), Sulforhodamine B, A549; conditions: 72 hours; for IC50: Homo sapiens, read-out: IC50 value for cell growth, A549 cells
Procedure: as §1, §2

[3] = system: Human colon cancer WiDr cells; assay: Measurement of cytotoxic activity for human cancer cells (2), Sulforhodamine B, WiDr; conditions: 72 hours
Procedure: as §1, §2

HeLa S3 cells = assay: Measurement of cytotoxic activity for human cancer cells (1), Cell Counting Kit; conditions: 72 h, cultured 3 days, read-out: IC50 value, cytotoxic activity (growth inhibition) for HeLa S3 cells
Procedure: Measurement of cytotoxic activity for human cancer cells (1)
HeLa S3 cells adjusted to a density of 6×10^4 cells/ml were dispensed in 200 μl portions, and various concentrations of the compound A and compound B respectively in 4 μl portions, into a 96 well test plate, and cultured at 37° C. for 3 days in a CO2 incubator. After the culturing, the degree of cell growth was measured using Cell Counting Kit (mfd. by DOJINDO), and the growth inhibition ratio at each concentration was obtained to calculate the IC50 value.

[4] = system: PAI-1 promoter gene expression in mink lung epithelial cells (MvlLu); assay: Measurement of TGF-β like activity, PAI-1 promoter luciferase reporter
From the text: Measurement of TGF-β like activity
In order to detect the TGF-β like activity, a screening system was constructed making use of the expression of a reporter gene. A fluorescent luciferase gene was transfected into downstream of the PAI-1 promoter gene of mink lung epithelial cells (MvlLu). in which expression of […] (PAI-1) is induced by TGF-β due to excess expression of TGF-β receptor (Journal of Biological Chemistxy, vol. 262, pp. 17467–17414, 1987), (Analytical Biochemistry, vol. 216, pp. 276–284, 1994).
Using the above cells, the luminous intensity obtained by adding each compound was used as the index of TGF-β like activity.

Molecule | cell growth inhibition activity for DU-145 cells [1] | cell growth inhibition activity for A549 cells [2] | IC50 [2] [nM] | cell growth inhibition activity for WiDr cells [3] | IC50 (HeLa S3 cells) [nM] | luminous intensity induced by the expression of PAI-1 promoter gene [4]
CC1NC(=O)CC2/C=C/CCSSCC(NC1=O)C(=O)NC(C(C)C)C(O)CC(=O)O2 (stereo not drawn) [Compound A] | excellent cell growth inhibition activity | excellent cell growth inhibition activity | ≤ 5 | excellent cell growth inhibition activity | 1600 | 
TGF-β |  |  |  |  |  | increased the luminous intensity
CC(C)CC1NC(=O)C2CSSCC/C=C/C(CC(=O)NC(C)C(=O)N2)OC(=O)CC1O (stereo not drawn) [Compound C] | excellent cell growth inhibition activity | excellent cell growth inhibition activity | ≤ 5 | excellent cell growth inhibition activity |  | 
CCC(C)C1NC(=O)C2CSSCC/C=C/C(CC(=O)NC(C)C(=O)N2)OC(=O)CC1O (stereo not drawn) [Compound B] | excellent cell growth inhibition activity | excellent cell growth inhibition activity | ≤ 5 | excellent cell growth inhibition activity | 1200 | 

From patent US7098024B2, “Depsipeptide compound” (Astellas Pharma Inc., priority 1999, dated 2006)
